# Data taken from ChEMBL document CHEMBL1201862, “PubChem BioAssay data set” (2004).
# Active and inactive are the calls of the source.
# Experiments:
# Protein skinhead-1 = target: T1, Protein skinhead-1 (Caenorhabditis elegans, UniProt P34707); assay type: functional
# T1 sequence (P34707 whole entry): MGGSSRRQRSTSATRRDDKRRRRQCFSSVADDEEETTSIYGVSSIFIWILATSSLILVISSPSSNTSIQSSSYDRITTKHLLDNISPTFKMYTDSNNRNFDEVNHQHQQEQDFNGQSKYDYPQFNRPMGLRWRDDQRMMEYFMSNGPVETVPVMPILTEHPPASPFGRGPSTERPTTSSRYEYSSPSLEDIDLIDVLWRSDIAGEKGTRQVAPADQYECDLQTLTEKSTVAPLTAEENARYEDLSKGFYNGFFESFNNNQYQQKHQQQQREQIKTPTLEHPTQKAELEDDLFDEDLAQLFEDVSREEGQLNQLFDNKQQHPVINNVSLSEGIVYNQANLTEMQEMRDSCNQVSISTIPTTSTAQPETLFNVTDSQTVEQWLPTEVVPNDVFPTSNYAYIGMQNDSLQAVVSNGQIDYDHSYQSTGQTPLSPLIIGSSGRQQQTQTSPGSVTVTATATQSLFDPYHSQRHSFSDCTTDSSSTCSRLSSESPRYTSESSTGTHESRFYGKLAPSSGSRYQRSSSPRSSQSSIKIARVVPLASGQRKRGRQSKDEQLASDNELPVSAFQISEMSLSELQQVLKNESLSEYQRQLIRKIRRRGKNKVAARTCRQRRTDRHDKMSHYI
# [1] = target: 5-hydroxytryptamine receptor 1A (Homo sapiens, UniProt P08908); assay type: functional
# Chain of 5-hydroxytryptamine receptor 1A (P08908 whole entry): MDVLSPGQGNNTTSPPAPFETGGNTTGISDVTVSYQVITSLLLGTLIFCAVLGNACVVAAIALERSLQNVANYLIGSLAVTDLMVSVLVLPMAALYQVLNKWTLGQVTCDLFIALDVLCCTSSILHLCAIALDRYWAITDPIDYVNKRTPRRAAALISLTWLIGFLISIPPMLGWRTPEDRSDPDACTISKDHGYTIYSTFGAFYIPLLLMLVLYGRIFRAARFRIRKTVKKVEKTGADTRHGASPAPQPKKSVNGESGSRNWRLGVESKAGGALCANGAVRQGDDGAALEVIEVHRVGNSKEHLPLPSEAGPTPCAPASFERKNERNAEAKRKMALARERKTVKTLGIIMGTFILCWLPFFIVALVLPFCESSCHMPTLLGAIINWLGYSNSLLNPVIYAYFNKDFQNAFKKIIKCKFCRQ
# [2] = target: Voltage-gated inwardly rectifying potassium channel KCNH2 (Homo sapiens, UniProt Q12809); test: concentration-dependent hERG rescue from blockers – cell-based, thallium flux, dose response (AID 2121); assay type: ADME
# Chain of Voltage-gated inwardly rectifying potassium channel KCNH2 (Q12809 whole entry): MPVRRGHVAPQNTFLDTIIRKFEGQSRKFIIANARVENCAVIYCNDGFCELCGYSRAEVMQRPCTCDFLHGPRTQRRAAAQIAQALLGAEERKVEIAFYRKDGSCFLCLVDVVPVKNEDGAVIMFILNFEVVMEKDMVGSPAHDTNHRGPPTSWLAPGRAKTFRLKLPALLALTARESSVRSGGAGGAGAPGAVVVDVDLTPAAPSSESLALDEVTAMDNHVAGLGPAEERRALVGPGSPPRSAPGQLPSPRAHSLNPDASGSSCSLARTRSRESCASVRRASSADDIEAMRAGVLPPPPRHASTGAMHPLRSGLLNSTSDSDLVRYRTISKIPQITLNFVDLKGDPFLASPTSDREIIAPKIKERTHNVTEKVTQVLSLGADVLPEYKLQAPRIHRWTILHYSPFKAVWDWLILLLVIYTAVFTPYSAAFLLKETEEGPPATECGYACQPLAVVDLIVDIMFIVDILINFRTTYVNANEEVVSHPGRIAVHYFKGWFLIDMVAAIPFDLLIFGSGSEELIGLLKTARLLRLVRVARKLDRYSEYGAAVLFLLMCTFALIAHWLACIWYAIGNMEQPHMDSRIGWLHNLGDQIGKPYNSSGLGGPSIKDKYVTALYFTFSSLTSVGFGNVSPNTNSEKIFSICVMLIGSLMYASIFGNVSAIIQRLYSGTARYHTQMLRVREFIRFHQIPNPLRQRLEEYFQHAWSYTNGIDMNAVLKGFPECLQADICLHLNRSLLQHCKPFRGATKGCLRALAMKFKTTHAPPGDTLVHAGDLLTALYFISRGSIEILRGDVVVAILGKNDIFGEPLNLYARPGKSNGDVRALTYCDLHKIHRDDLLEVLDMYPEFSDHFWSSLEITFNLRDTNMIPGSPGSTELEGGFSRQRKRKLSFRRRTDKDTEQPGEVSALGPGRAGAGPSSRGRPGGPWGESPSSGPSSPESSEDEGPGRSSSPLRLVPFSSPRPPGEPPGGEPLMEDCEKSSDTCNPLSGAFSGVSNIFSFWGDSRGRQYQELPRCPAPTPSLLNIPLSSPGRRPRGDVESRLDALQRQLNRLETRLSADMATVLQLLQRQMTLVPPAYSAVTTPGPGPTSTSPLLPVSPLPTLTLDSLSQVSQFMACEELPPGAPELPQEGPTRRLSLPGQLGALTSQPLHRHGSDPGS
# [3] = target: T2, Mannose-6-phosphate isomerase (Homo sapiens, UniProt P34949); test: MPI enzyme activity inhibition – biochemical, fluorescence intensity, coupled assay, primary screen (AID 1209)
# T2 sequence (P34949 whole entry): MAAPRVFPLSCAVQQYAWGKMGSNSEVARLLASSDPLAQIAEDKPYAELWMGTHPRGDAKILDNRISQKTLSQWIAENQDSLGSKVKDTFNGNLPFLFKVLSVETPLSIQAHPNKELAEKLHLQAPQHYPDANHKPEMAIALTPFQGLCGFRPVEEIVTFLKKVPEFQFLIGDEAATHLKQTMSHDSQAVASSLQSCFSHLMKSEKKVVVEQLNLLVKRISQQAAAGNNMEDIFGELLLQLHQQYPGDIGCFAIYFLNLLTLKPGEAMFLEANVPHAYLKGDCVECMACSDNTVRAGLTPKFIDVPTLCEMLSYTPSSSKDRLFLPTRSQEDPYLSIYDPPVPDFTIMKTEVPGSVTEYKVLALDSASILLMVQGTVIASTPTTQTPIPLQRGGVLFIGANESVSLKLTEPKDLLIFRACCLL
# Vero = test: mammalian cell viability reduction – secondary assay, cytotoxicity control for West Nile virus antiviral project, dose response (AID 1650); assay type: functional; settings: Chlorocebus sabaeus
# [4] = Luminescence Cell-Based Dose Response HTS to Identify Inhibitors of 5'UTR Stem-Loop Driven Prion Protein mRNA Translation in H4 Neuroglioblastoma Cells. [Related pubchem assays: 1827 (Project Summary), 1813 (Primary HTS)]; assay type: functional
# [5] = viability of uninfected HEp-2 cells – cell-based, HTS, cytotoxicity control for RSV inhibitor project, dose response (AID 2410); assay type: functional; settings: human respiratory syncytial virus
# [6] = luciferase reporter signal suppression in cells – H4 neuroglioma cells, luminescence, dose response (AID 1990); assay type: functional, cell-based
# [7] = alpha-synuclein stem-loop luciferase translation blockers – H4 neuroglioma cells, luminescence, confirmation (AID 1988); assay type: functional, cell-based
# [8] = target: T3, Neuropeptide Y receptor type 2 (Homo sapiens, UniProt P49146); test: IC50 for human NPY-Y2 blockade – cell-based, counter-screen for NPY-Y1 antagonist project, dose response (AID 1278); assay type: functional
# T3 sequence (P49146 whole entry): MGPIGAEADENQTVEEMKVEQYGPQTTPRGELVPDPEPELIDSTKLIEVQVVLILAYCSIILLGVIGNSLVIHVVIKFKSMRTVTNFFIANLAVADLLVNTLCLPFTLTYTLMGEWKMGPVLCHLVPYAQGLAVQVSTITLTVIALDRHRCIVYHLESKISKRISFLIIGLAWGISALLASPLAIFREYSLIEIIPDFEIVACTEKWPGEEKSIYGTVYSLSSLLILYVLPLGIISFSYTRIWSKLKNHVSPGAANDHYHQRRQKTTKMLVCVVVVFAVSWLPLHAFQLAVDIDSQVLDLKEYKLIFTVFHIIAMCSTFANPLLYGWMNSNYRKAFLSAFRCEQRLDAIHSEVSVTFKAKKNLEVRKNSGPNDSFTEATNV
# [9] = target: T4, Neuropeptide Y receptor type 1 (Homo sapiens, UniProt P25929); test: IC50 of human NPY-Y1 blockers – cell-based, dose response (AID 1277); assay type: functional
# T4 sequence (P25929 whole entry): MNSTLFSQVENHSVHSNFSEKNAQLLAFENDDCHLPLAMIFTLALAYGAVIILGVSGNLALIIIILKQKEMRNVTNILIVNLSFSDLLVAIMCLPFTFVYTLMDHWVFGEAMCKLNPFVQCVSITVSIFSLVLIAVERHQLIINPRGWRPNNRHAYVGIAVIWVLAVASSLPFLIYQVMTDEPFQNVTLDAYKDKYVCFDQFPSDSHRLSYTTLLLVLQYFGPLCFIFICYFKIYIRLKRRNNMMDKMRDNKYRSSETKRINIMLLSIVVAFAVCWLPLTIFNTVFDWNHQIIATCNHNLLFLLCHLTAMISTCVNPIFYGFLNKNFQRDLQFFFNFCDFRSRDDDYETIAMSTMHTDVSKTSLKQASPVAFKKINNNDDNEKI
# Galanin receptor type 2 = Galanin receptor type 2 (Homo sapiens, UniProt O43603); test: Dose Response cell-based high-throughput screening assay to identify antagonists of galanin receptor 2 (GALR2). [Related pubchem assays: 828, 866 ]; assay type: functional
# Chain of Galanin receptor type 2 (O43603 whole entry): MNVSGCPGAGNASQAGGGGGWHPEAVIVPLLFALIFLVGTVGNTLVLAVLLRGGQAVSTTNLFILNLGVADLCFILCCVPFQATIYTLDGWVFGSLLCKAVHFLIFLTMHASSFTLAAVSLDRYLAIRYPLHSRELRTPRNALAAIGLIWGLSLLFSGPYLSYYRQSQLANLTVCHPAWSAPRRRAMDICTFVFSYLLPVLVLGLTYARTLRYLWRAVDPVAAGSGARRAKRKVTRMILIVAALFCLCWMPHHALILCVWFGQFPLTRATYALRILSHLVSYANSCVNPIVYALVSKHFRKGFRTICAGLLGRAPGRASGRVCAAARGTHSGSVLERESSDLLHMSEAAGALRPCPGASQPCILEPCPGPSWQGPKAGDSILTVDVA
# [10] = target: Bifunctional protein GlmU (Mycobacterium tuberculosis, UniProt P9WMN3); test: Inhibitors of Mycobacterial Glucosamine-1-phosphate acetyl transferase (GlmU). Secondary screen.; set-up: species or system Mycobacterium tuberculosis H37Rv
# Chain of Bifunctional protein GlmU (P9WMN3 whole entry): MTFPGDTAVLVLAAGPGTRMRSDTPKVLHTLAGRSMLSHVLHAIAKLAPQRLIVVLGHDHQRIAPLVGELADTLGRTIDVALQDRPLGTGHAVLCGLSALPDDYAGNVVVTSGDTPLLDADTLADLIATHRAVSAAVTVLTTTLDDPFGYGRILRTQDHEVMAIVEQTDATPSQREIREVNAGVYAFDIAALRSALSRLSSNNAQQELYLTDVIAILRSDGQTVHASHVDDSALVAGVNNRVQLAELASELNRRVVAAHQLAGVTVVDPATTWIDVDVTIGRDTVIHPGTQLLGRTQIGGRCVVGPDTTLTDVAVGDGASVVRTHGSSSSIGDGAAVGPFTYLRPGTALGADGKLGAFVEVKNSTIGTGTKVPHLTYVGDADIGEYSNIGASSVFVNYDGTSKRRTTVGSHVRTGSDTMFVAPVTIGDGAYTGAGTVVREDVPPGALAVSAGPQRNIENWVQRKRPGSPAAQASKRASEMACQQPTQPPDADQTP
# [11] = target: T4, Neuropeptide Y receptor type 1; assay type: functional
# [12] = target: T3, Neuropeptide Y receptor type 2; assay type: functional, cell-based
# [13] = target: T5, Sphingosine 1-phosphate receptor 4 (Homo sapiens, UniProt O95977); test: Fluorescence dose response cell-based high throughput screening assay for antagonists of the Sphingosine 1-Phosphate Receptor 4 (S1P4). [Related pubchem assays: 1524 (Confirmation in triplicates.), 1510 (Primary screen.)]; assay type: functional
# T5 sequence (O95977 whole entry): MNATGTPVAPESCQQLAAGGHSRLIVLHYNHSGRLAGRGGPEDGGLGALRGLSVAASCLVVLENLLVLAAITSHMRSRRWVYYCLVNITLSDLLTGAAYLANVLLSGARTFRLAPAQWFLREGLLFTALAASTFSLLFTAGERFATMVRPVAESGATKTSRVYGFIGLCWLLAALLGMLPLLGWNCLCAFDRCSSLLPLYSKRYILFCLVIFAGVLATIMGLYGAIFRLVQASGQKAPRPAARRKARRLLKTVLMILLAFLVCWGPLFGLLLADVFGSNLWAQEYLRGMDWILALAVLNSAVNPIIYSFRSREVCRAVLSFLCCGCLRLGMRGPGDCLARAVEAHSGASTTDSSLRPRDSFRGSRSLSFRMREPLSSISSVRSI
# [14] = reduced cellular PGC1a acetyl-lysine signal – cell-based, cherry-picked samples, dose response (AID 720514); assay type: functional;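 also: potency may reflect raised or lowered acetylation signal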
# [15] = target: T6, Replicative DNA helicase DnaB (Mycobacterium tuberculosis, UniProt P9WMR3); test: DnaB intein splicing inhibitors, dose response, biochemical, cell-free fluorescence (AID 449749); assay type: functional
# T6 sequence (P9WMR3 whole entry): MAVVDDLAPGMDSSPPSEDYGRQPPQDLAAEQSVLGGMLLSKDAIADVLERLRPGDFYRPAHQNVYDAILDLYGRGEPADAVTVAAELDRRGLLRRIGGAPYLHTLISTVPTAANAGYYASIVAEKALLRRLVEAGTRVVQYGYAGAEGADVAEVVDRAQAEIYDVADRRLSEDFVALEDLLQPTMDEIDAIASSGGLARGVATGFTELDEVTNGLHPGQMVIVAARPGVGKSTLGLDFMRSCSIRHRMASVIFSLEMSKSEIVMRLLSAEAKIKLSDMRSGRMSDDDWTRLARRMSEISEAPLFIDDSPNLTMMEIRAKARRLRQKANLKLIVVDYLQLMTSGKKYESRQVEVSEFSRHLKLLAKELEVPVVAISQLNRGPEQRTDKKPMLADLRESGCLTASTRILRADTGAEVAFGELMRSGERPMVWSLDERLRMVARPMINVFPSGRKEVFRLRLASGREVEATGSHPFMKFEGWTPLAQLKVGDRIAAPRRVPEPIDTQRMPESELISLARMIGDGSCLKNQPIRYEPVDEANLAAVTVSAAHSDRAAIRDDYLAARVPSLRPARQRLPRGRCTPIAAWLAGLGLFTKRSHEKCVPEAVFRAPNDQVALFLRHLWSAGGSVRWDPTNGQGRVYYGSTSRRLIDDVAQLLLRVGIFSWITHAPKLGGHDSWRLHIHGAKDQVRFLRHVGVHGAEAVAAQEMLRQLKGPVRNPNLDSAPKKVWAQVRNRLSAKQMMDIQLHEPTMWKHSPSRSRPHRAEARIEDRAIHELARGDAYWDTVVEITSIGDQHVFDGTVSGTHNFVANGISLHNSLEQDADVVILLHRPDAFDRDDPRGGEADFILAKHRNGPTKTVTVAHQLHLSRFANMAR
# [16] = target: T7, Sphingosine 1-phosphate receptor 1 (Homo sapiens, UniProt P21453); assay type: functional;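 as to IC50: Tango beta-arrestin reporter U2OS cells stimulated with S1P near its EC80; inhibitor potency meaning antagonism of receptor activation by the natural agonist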
# T7 sequence (P21453 whole entry): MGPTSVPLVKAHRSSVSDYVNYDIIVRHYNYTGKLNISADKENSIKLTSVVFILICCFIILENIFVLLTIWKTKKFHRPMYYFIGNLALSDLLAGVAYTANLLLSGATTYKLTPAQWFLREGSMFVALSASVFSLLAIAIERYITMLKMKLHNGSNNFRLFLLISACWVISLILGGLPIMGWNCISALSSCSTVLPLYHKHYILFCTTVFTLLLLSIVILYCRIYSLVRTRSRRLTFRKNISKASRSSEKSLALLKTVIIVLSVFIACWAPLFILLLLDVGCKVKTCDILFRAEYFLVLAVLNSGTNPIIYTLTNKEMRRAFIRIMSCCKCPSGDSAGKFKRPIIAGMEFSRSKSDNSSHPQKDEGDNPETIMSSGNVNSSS
# [17] = target: Sphingosine 1-phosphate receptor 2 (Homo sapiens, UniProt O95136); test: Dose Response Cell Based Assay for Antagonists of the S1P2 Receptor. [Related pubchem assays: 856, 736 ]; assay type: functional
# Chain of Sphingosine 1-phosphate receptor 2 (O95136 whole entry): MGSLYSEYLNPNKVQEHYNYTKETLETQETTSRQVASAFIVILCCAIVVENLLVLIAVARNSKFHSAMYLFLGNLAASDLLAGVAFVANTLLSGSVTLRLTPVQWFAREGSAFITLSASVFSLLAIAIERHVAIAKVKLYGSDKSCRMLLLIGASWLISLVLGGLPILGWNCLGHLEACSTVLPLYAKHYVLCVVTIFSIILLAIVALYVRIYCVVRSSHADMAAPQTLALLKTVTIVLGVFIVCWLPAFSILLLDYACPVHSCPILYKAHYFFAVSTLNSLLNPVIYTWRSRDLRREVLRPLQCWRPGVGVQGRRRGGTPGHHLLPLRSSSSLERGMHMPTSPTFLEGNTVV
# Protein RecA = target: T8, Protein RecA (Mycobacterium tuberculosis, UniProt P9WHJ3); test: Fluorescence Cell-Free Homogeneous Dose Retest to Identify Inhibitors of RecA-Intein Splicing Activity. [Related pubchem assays (depositor defined):AID2097, AID2223, AID489010, AID492950]; assay type: functional
# T8 sequence (P9WHJ3 whole entry): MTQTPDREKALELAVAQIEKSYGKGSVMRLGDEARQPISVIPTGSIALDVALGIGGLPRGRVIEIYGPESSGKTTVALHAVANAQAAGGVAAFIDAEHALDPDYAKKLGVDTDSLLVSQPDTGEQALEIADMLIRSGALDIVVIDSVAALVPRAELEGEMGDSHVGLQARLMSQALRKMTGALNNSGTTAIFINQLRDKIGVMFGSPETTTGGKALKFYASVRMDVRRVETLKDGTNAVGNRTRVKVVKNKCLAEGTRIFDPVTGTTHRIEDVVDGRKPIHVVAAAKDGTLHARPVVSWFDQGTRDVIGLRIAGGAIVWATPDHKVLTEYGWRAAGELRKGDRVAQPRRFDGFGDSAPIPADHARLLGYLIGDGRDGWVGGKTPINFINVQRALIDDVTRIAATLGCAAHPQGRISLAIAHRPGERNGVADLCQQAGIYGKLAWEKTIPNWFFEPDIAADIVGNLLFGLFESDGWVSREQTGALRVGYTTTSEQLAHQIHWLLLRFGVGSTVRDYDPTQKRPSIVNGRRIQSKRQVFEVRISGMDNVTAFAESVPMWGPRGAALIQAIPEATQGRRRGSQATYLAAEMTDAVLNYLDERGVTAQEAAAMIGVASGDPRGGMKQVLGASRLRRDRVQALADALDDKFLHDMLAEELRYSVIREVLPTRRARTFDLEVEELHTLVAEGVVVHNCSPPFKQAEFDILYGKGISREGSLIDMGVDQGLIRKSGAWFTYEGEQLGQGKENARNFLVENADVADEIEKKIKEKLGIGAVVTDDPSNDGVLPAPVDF
# [18] = target: T5, Sphingosine 1-phosphate receptor 4; test: Late stage fluorescence dose response cell-based screening assay for antagonists of the Sphingosine 1-Phosphate Receptor 4 (S1P4). [Related pubchem assays: 1524 (Confirmation screen (S1P4 antagonists).), 1510 (Primary screen (S1P4 antagonists).), 1853 (Summary AID (S1P4 antagonists).), 1692 (Dose response screen (S1P4 antagonists).)]; assay type: functional
# [19] = target: Photoreceptor-specific nuclear receptor (Homo sapiens, UniProt Q9Y5X4); assay type: functional, cell-based;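 also: CHO-S cells with Gal4-NCOR and VP16-NR2E3 two-hybrid luciferase reporter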
# Chain of Photoreceptor-specific nuclear receptor (Q9Y5X4 whole entry, the tested form may be a part): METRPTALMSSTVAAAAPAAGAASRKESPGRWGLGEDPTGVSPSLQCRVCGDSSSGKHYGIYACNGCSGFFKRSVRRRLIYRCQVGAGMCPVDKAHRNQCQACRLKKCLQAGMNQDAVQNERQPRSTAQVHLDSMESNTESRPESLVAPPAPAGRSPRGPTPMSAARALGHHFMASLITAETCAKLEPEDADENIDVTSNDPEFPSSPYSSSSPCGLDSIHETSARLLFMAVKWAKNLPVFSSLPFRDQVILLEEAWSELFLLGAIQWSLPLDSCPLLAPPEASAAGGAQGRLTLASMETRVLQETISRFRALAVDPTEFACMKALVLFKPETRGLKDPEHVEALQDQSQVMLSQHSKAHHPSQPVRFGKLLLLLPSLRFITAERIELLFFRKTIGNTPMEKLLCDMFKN
# [20] = target: T7, Sphingosine 1-phosphate receptor 1; test: Cell-membrane dose response assay to identify antagonists of the Sphingosine 1-Phosphate receptor 1 (S1P1).; assay type: functional
structure (smiles),measurement,setting,value
O=C(COC(=O)CCC1CCCC1)Nc1ccc(Cl)cn1,IC50,Protein skinhead-1,> 100 µM (inactive)
same,EC50,[1],> 50 µM (not active)
CC(C)CNC(=S)NC(=O)c1ccc(Cl)cc1,EC50,[2],6.61 µM (active)
CC1(C(=O)CSc2nc[nH]n2)CCC(=O)O1 (centres undefined),IC50,[3],> 50 µM (not active)
CC12CC[C@H]3[C@@H](CCC4(O)C[C@H](O)CCC34/C=N/NC(=O)c3ccccc3[N+](=O)[O-])C1(O)CCC2C1=CC(=O)OC1 (some centres undefined),CC50,Vero,32 µM (active)
same,EC50,[4],11.9 µM (active)
same,CC50,[5],12.9 µM (active)
same,EC50,[6],11.2 µM (active)
same,EC50,[7],8.77 µM (active)
Cc1ccc(C)c(SCc2noc(C(=O)NCC3CCCO3)c2C(=O)O)c1 (centres undefined),IC50,[8],26.4 µM (not active)
same,IC50,[9],> 35 µM (not active)
CCn1c2ccc(C)cc2c2nc3cc(C(=O)O)ccc3nc21,IC50,Galanin receptor type 2,> 42 µM (not active)
same,IC50,[10],191 µM (active)
COc1ccc(-c2nnc3sc(C(C)N4C(=O)c5ccccc5C4=O)nn23)cc1 (centres undefined),IC50,[11],9.35 µM (active)
same,IC50,[12],6.02 µM (active)
COc1ccc(NC(=O)/C(Cl)=C(/Cl)S(=O)(=O)Cc2ccccc2)cn1,IC50,[13],0.829 µM (active)
same,AC50,[14],5.17 µM (active)
same,AC50,[15],2.44 µM (active)
same,IC50,[16],8.15 µM (active)
same,IC50,[17],1.76 µM (active)
same,EC50,Protein RecA,2.79 µM (active)
same,IC50,[18],5.28 µM (not active)
same,IC50,[19],1.15 µM (active)
CCCCCCc1cccc(NC(=O)[C@H](N)CCP(=O)(O)O)c1,Ki,[20],4.63 µM (active)
